Reference: the supplement of paper PMC4862054

What was measured:
Conditions in all cases: incubation time: 72 h
Hs578T [1] = assay: normalised response (% of control), CellTiter-Glo; higher = more viable cells (100 = DMSO, 0 = benzethonium chloride kill control)
Method: (§1)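 DSRT, 72 h incubation, CellTox Green / CellTiter-Glo readout. Signal is normalised to DMSO and benzethonium chloride controls. Value is the normalised response at dose 3.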

DU-4475 [2] = assay: as above
Method: as §1

MDA-MB-468 [3] = assay: as above
Method: as §1

MDA-MB-231 [4] = assay: as above
Method: as §1

HDQ-P1 [5] = assay: as above
Method: as §1

HCC1937 [6] = assay: as above
Method: as §1

SK-BR-3 = assay: as above
Method: as §1

MCF-10A [7] = assay: as above
Method: as §1

MDA-MB-436 [8] = assay: as above
Method: as §1

CAL-148 [9] = assay: as above
Method: as §1

MFM-223 [10] = assay: as above
Method: as §1

BT-549 [11] = assay: as above
Method: as §1

BT-474 [12] = assay: as above
Method: as §1

CAL-120 [13] = assay: as above
Method: as §1

HCC1599 [14] = assay: as above
Method: as §1

MDA-MB-453 [15] = assay: as above
Method: as §1

CAL-85-1 [16] = assay: as above
Method: as §1

HCC1143 [17] = assay: as above
Method: as §1

CAL-51 [18] = assay: as above
Method: as §1

Hs578T [19] = assay: normalised response (% of control), CellTox Green; higher = less cell death (100 = DMSO, 0 = benzethonium chloride kill control)
Procedure, shortened: (§2)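 Plates were normalised with 0.1 % DMSO as 100 and a positive kill control as 0. Breast cancer cell lines in 20 µl suspension had been seeded into 384-well plates with compound at 5 concentrations in 10-fold steps over a compound-specific 10,000-fold range, incubated 72 h, and read for CellTox Green fluorescence (485/520 nm) followed by CellTiter-Glo luminescence. Each value is the normalised signal at a single concentration.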

DU-4475 [20] = assay: as above
Procedure, shortened: as §2

MDA-MB-468 [21] = assay: as above
Procedure, shortened: as §2

MDA-MB-231 [22] = assay: as above
Procedure, shortened: as §2

HDQ-P1 [23] = assay: as above
Procedure, shortened: as §2

HCC1937 [24] = assay: as above
Procedure, shortened: as §2

MCF-10A [25] = assay: as above
Procedure, shortened: as §2

MDA-MB-436 [26] = assay: as above
Procedure, shortened: as §2

CAL-148 [27] = assay: as above
Procedure, shortened: as §2

MFM-223 [28] = assay: as above
Procedure, shortened: as §2

BT-549 [29] = assay: as above
Procedure, shortened: as §2

BT-474 [30] = assay: as above
Procedure, shortened: as §2

CAL-120 [31] = assay: as above
Procedure, shortened: as §2

HCC1599 [32] = assay: as above
Procedure, shortened: as §2

MDA-MB-453 [33] = assay: as above
Procedure, shortened: as §2

CAL-85-1 [34] = assay: as above
Procedure, shortened: as §2

HCC1143 [35] = assay: as above
Procedure, shortened: as §2

CAL-51 [36] = assay: as above
Procedure, shortened: as §2

| Compound | normalised response (Hs578T [1]) | normalised response (DU-4475 [2]) | normalised response (MDA-MB-468 [3]) | normalised response (MDA-MB-231 [4]) | normalised response (HDQ-P1 [5]) | normalised response (HCC1937 [6]) | normalised response (SK-BR-3) | normalised response (MCF-10A [7]) | normalised response (MDA-MB-436 [8]) | normalised response (CAL-148 [9]) | normalised response (MFM-223 [10]) | normalised response (BT-549 [11]) | normalised response (BT-474 [12]) | normalised response (CAL-120 [13]) | normalised response (HCC1599 [14]) | normalised response (MDA-MB-453 [15]) | normalised response (CAL-85-1 [16]) | normalised response (HCC1143 [17]) | normalised response (CAL-51 [18]) | normalised response (Hs578T [19]) | normalised response (DU-4475 [20]) | normalised response (MDA-MB-468 [21]) | normalised response (MDA-MB-231 [22]) | normalised response (HDQ-P1 [23]) | normalised response (HCC1937 [24]) | normalised response (MCF-10A [25]) | normalised response (MDA-MB-436 [26]) | normalised response (CAL-148 [27]) | normalised response (MFM-223 [28]) | normalised response (BT-549 [29]) | normalised response (BT-474 [30]) | normalised response (CAL-120 [31]) | normalised response (HCC1599 [32]) | normalised response (MDA-MB-453 [33]) | normalised response (CAL-85-1 [34]) | normalised response (HCC1143 [35]) | normalised response (CAL-51 [36]) |
| --- | --- | --- | --- | --- | --- | --- | --- | --- | --- | --- | --- | --- | --- | --- | --- | --- | --- | --- | --- | --- | --- | --- | --- | --- | --- | --- | --- | --- | --- | --- | --- | --- | --- | --- | --- | --- | --- |
| CC(C)(C)Cn1c(N)nc2ccc(-c3[nH]c(C(C)(C)C)nc3-c3ccc(F)cc3)nc21 (100 nM) | 102% | 103% | 95.8% | 98.6% | 88.5% | 92.8% | 104% | 98.4% | 105% | 100% | 104% | 105% | 102% | 106% | 102% | 101% | 99.5% | 110% | 92.9% | 105% | 103% | 117% | 72.7% | 109% | 105% | 99.2% | 98% | 102% | 82.9% | 101% | 102% | 103% | 98.1% | 102% | 112% | 113% | 96.5% |
| CC[C@H](CC#N)OC(=O)N[C@@H](C)c1cccc(NC(=O)Nc2ccc(-c3cnco3)c(OC)c2)c1 [AVN944] (100 nM) | 111% | 97.1% | 59.9% | 91.3% | 85.8% | 90.2% | 96% | 91.9% | 80.1% | 94.8% | 98.2% | 67.8% | 86.2% | 93.8% | 82.8% | 98.2% | 81.9% | 92.2% | 83.9% | 98.7% | 97.8% | 73.7% | 85.2% | 83.5% | 83% | 67.8% | 90.8% | 95.8% | 93.5% | 102% | 73.6% | 97.7% | 93.2% | 70.8% | 95.9% | 76.5% | 95% |
| CC(C)C[C@H](NC(=O)[C@H](CCc1ccccc1)NC(=O)CN1CCOCC1)C(=O)N[C@@H](Cc1ccccc1)C(=O)N[C@@H](CC(C)C)C(=O)[C@@]1(C)CO1 [Carfilzomib] (10 nM) | 63.5% | 102% | 0.56% | 78.8% | 83.5% | 77% | 19.1% | 119% | 23.4% | 104% | 8.07% | 6.23% | 70.3% | 91.6% | 104% | 40.7% | 37.6% | 44.4% | 60.5% | 69.9% | 100% | -51.7% | 51.9% | 96.5% | 48.8% | 100% | 48.3% | 78.6% | 66.1% | 81.9% | 87.4% | 91.2% | 111% | 84.6% | 43.5% | 90.5% | 35.9% |
| CCN(CC)CCOc1ccc(C(=C(Cl)c2ccccc2)c2ccccc2)cc1 [Clomifene] (100 nM) | 113% | 103% | 94.1% | 106% | 99% | 101% | 104% | 95.2% | 98.5% | 109% | 104% | 103% | 105% | 103% | 87.8% | 103% | 101% | 102% | 102% | 75.9% | 100% | 91.3% | 106% | 97.7% | 59.1% | 104% | – | 96.2% | 102% | 105% | 96.8% | 102% | 98.5% | 104% | 106% | 112% | 112% |
| CCc1cnn2c(NCc3ccc[n+]([O-])c3)cc(N3CCCC[C@H]3CCO)nc12 [Dinaciclib] (10 nM) | 79.9% | 89% | 90.3% | 28.2% | 71.2% | 91.2% | 37.4% | 105% | 53.5% | 101% | 85.2% | 68.7% | 67.7% | 88.1% | 75.8% | 94.8% | 24.4% | 68.5% | 65.7% | -11% | 103% | 82.9% | 36.4% | 72.3% | 107% | 107% | 54% | 93.2% | 93.8% | 95% | 92% | 96.6% | 92% | 104% | 67.9% | 93.7% | 87.1% |
| NC(=O)c1cccc2cn(-c3ccc([C@@H]4CCCNC4)cc3)nc12 [MK-4827] (100 nM) | 95.1% | 99.8% | 94.7% | 106% | 101% | 102% | 104% | 110% | 95.8% | 112% | 107% | 91.6% | 109% | 105% | 90% | 99.4% | 101% | 107% | 90.9% | 116% | 101% | 136% | 107% | 78% | 111% | 84.8% | – | 104% | 82.5% | – | 88.2% | 102% | 115% | 91.6% | 102% | 110% | 89.4% |
| O=C(c1cc(Cc2n[nH]c(=O)c3ccccc23)ccc1F)N1CCN(C(=O)C2CC2)CC1 [Olaparib] (100 nM) | 97.7% | 95.8% | 105% | 93.8% | 96.8% | 96% | 88.8% | 101% | 91.3% | 98.5% | 99.2% | 100% | 96.5% | 91.4% | 103% | 107% | 102% | 94.4% | 66.4% | 110% | 101% | – | 97.4% | 101% | 94.9% | 98.9% | 88.4% | 79.6% | 103% | 105% | 96.5% | 95% | 101% | 103% | 103% | 110% | 81.9% |
| CN1CCc2c(c3ccccc3n2Cc2ccc(C(=O)NO)cc2)C1 [Tubastatin A] (100 nM) | 102% | 102% | 95.3% | 99.9% | 95.4% | 101% | 97.5% | 102% | 93.1% | 106% | 96.9% | 103% | 96.8% | 98.1% | 99.2% | 96.3% | 98.2% | 104% | 91.8% | 110% | 104% | – | 116% | 101% | 92.5% | 101% | 109% | 99.3% | 93.8% | 86.2% | 101% | 103% | 99.9% | 107% | 102% | 105% | 105% |
| CC[C@@H]1C(=O)N(C)c2cnc(Nc3ccc(C(=O)N[C@H]4CC[C@H](N5CCN(CC6CC6)CC5)CC4)cc3OC)nc2N1C(C)C [Volasertib] (10 nM) | 96.3% | 100% | 68.3% | 79.9% | 86.3% | 83% | 54.8% | 87.9% | 59.5% | 84.4% | 54.6% | 89.8% | 82.6% | 88.5% | 106% | 65.4% | 70.4% | 82% | 84.2% | 77% | 95.3% | 34.3% | 71.8% | 87% | 53.5% | – | 19.6% | 86% | 1.2% | 100% | 71.2% | 91.6% | 91.3% | 92.4% | 69.5% | – | 65.5% |
